Experiments:
[1] = system: rat spinal cord; assay: ultrasound contrast imaging in a rat spinal cord model; assay type: in vivo, Sprague-Dawley rat; conditions: bolus via tail vein, 15 MHz linear array, harmonic imaging
Description: Ouzo-synthesized droplets were used as an ultrasound contrast agent in a rat spinal cord model (FIGS. 7A-7D). Surgical procedures were performed according to approved institutional animal care and use committee (IACUC) protocol following all appropriate guidelines from the university's Animal Welfare Assurance (A3464-01) as well as the NIH Office of Laboratory Animal Welfare (OLAW). A laminectomy was performed to remove the top surface of spine vertebrae, exposing the spinal cord. A bolus injection of perfluorobutane droplets ([…]) with a mean diameter of 182 nm was administered via tail vein and imaged using a 15 MHz linear array ultrasound transducer. […] Harmonic imaging was necessary to suppress intrinsic linear signals from this tissue model and to highlight the non-linear signals that are generated from bubble oscillations.
Surgical procedures were performed according to approved institutional animal care and use committee (IACUC) protocol following all appropriate guidelines from the university's Animal Welfare Assurance (A3464-01) as well as the NIH Office of Laboratory Animal Welfare (OLAW). A 0.2 ml bolus injection of perfluorobutane droplets diluted to approximately 10^6 droplet/ml was injected via tail vein in an anesthetized female Sprague-Dawley rat. An ultrasound imaging window was made by performing a laminectomy to expose the spinal cord between T6 and T10. […]

[2] = maximum PFC dissolved in ethanol; assay type: physicochemical; conditions: in ethanol (co-solvent)
Description: PFC ouzo droplets were synthesized by first dissolving a PFC into ethanol (co-solvent). A maximum of approximately 2.0% perfluorohexane (C6F14, TBoiling=56° C.), 2.3% perfluoropentane (C5F12, TBoiling=29° C.), 2.5% perfluorobutane (C4F10, TBoiling=2° C.), and 2.7% perfluoropropane ([…], TBoiling=−37° C.) by volume could be dissolved in ethanol. In the ethanol phase, a 20:1 mole ratio of dipalmitoylphosphatidylcholine (DPPC) and N-(Methylpolyoxyethylene oxycarbonyl)-1,2-distearoyl-sn-glycero-3-phosphoethanolamine sodium salt (DSPE-PEG 2K) lipids were also dissolved. The total lipid concentration was varied from 0.10 mg/ml to 1.82 mg/ml depending on the volume of perfluorocarbon that was used. […] However, lower concentration lipids solutions were not used to ensure ample lipids were in solution to stabilize the droplet interface. […] When an aqueous solution (solvent) prepared at a ratio of 7:2:1 water/propylene glycol/glycerol is added to the PFC/ethanol solution, the PFC oil phase quickly loses solubility resulting in the spontaneous nucleation of stable droplets (FIG. 2). Since PFCs are known to have very poor solubility in water, the greater the water content relative to ethanol, the lower the PFC solubility is in the final mixed solvent. The inclusion of glycerol and propylene glycol is optional for droplet nucleation. For example, PFC emulsions can also be generated in the absence of any stabilizer (FIGS. 8 and 9). However, glycerol and propylene glycol are commonly used along with lipid mixtures to improve microbubble stability. Here, glycerol and propylene glycol were also included in the ouzo droplet formulation to make the agent composition analogous to microbubbles and to increase stability.
The lipid-ethanol stock solution was then divided as needed. Using a stir plate, PFCs were then dissolved in the lipid-ethanol solution until it was fully saturated. For liquid PFCs (i.e. PFH and PFP), the PFC oil was incrementally added to the stirred ethanol solution until a small droplet of PFC formed in solution. The solution was then removed from the stir plate and allowed to rest at room temperature for approximately 20 minutes, enabling excess PFC to fall to the bottom of the container. For gaseous PFCs (i.e. PFB and OFP), PFC gas was bubbled into a sealed glass vial with the ethanol solution at a pressure of 1.5-2.0 PSI while on ice. It was bubbled through for a minimum of 2 minutes and purged 3 times to ensure the headspace was filled with gaseous PFC. Then, the PFC-lipid-ethanol solution was pipetted into a clean glass vial and diluted as needed using additional lipid-ethanol solution to achieve the desired PFC in ethanol saturation percentage. […]

maximum that could be dissolved in ethanol [2]	SMILES	ultrasound contrast enhancement after injection [1]
approximately 2.0 % by volume	FC(F)(F)C(F)(F)C(F)(F)C(F)(F)C(F)(F)C(F)(F)F [perfluorohexane]	nearly zero contrast enhancement
~2.3 % by volume	FC(F)(F)C(F)(F)C(F)(F)C(F)(F)C(F)(F)F [perfluoropentane]	nearly zero contrast enhancement
~2.7 % by volume	FC(F)(F)C(F)(F)C(F)(F)F [perfluoropropane]	
~2.5 % by volume	FC(F)(F)C(F)(F)C(F)(F)C(F)(F)F [perfluorobutane]	

Reference: US20190307908A1, “NANOEMULSION AGENTS FOR ULTRASOUND DIAGNOSTIC AND THERAPY” (University of Washington, priority 2018, published 2019)
